Where only a bound is given, the exact number is not on record here.

One assay deals with KRAS (aa 1-169) G12C, C51S, C80L, C118S (Homo sapiens (Human), UniProt P01116, C118S/C51S/C80L/G12C). Nature of the assay: Biochemical functional assay: SOS1-mediated nucleotide exchange of GDP-loaded KRAS G12C, binding to GST-cRaf RBD, FRET readout. The conditions noted are these: 3 hrs pre-incubation with compound at 24° C., SOS1, GTPyS, bound in uM. Put shortly: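 GDP-loaded His-tagged KRAS construct preincubated with compound 3 h at 24° C in 25 mM HEPES pH7.5, 10 mM MgCl2, 0.01% Triton X-100; SOS1 (aa 564-1049), GTPγS and GST-cRaf RBD added for 3 h, then anti-His Tb cryptate/anti-GST XL665 for 3 h. HTRF 665/620 ratio; IC50 by four-parameter logistic fit.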
Sequence of KRAS (aa 1-169) G12C, C51S, C80L, C118S (P01116 other isoform, or with tags, fused parts or gaps G12C/C51S/C80L/C118S): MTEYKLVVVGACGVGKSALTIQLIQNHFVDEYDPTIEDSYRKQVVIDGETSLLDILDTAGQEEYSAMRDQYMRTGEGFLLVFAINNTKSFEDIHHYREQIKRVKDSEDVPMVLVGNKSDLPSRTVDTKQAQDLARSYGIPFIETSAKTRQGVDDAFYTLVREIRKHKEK
In general, IC50 refers to the midpoint of a concentration-inhibition curve. As to `C=CC(=O)N1CCN(c2nc(N3CC(N(C)C)C3)nc3cc(-c4ccccc4F)c4c(c23)OCCC4)CC1` [Compound B16, 1-(4-(8-(3-(dimethylamino)azetidin-1-yl)-5-(2-fluorophenyl)-3,4-dihydro-2H-pyrano[2,3-f]quinazolin-10-yl)piperazin-1-yl)prop-2-en-1-one], the IC50 was more than 10 µM.

The assay is the same for the next values; noted with them: 3 hrs pre-incubation with compound at 24° C., SOS1, GTPyS, inhibition of nucleotide exchange.
For `C=C(F)C(=O)N1CCN(c2nc(N3CC(N(C)C)C3)nc3cc(-c4cccc(F)c4F)c4c(c23)OCCC4)C[C@@H]1CC#N` [Compound B9, (S)-2-(4-(5-(2,3-difluorophenyl)-8-(3-(dimethylamino)azetidin-1-yl)-3,4-dihydro-2H-pyrano[2,3-f]quinazolin-10-yl)-1-(2-fluoroacryloyl)piperazin-2-yl)acetonitrile], the IC50 turned out to be 0.456 µM.

In the case of `C=CC(=O)N1CCN(c2ncnc3cc(-c4c(Cl)ccc5[nH]ncc45)c4c(c23)OCCC4)C[C@@H]1CC#N` (single isomer, unassigned) [Compound A14], the IC50 turned out to be 0.0794 µM.

Turning to `C=C(F)C(=O)N1CCN(c2ncnc3cc(-c4c(Cl)c(C)cc5[nH]ncc45)c4c(c23)OCCC4)C[C@@H]1CC#N` [Compound A23, 2-((2S)-4-(5-(5-chloro-6-methyl-1H-indazol-4-yl)-3,4-dihydro-2H-pyrano[2,3-f]quinazolin-10-yl)-1-(2-fluoroacryloyl)piperazin-2-yl)acetonitrile], the IC50 came to 0.346 µM.

In the case of `C=CC(=O)N1CCN(c2nc(OC[C@@H]3CCCN3C)nc3cc(-c4cccc5cccc(Cl)c45)c4c(c23)OCCC4)[C@@H](C)C1` [Compound B63, 1-((S)-4-(5-(8-chloronaphthalen-1-yl)-8-(((S)-1-methylpyrrolidin-2-yl)methoxy)-3,4-dihydro-2H-pyrano[2,3-f]quinazolin-10-yl)-3-methylpiperazin-1-yl)prop-2-en-1-one], the IC50 amounted to 0.148 µM.

Take `C=CC(=O)N1CCN(c2ncnc3cc(-c4cccc(C)c4F)c4c(c23)OCCC4)C[C@@H]1CC#N` [Compound A31, (S)-2-(1-acryloyl-4-(5-(2-fluoro-3-methylphenyl)-3,4-dihydro-2H-pyrano[2,3-f]quinazolin-10-yl)piperazin-2-yl)acetonitrile]: the IC50 came to 0.137 µM.

In the case of `C=CC(=O)N1C[C@H](C)N(c2nc(OC[C@@H]3CCCN3C)nc3cc(-c4c(Cl)c(C)cc5[nH]ncc45)c4ccoc4c23)C[C@H]1C` [Compound B62, 1-((2R,5S)-4-(4-(5-chloro-6-methyl-1H-indazol-4-yl)-7-(((S)-1-methylpyrrolidin-2-yl)methoxy)furo[2,3-f]quinazolin-9-yl)-2,5-dimethylpiperazin-1-yl)prop-2-en-1-one], the IC50 turned out to be 0.642 µM.

As to `C=CC(=O)N1CCN(c2nc(O[C@H]3CN(C)C[C@@H]3OC)nc3cc(-c4c(Cl)c(C)cc5[nH]ncc45)c4c(c23)OCCC4)C[C@@H]1CC#N` [Compound B3, 2-((2S)-1-acryloyl-4-(5-(5-chloro-6-methyl-1H-indazol-4-yl)-8-(((3S,4S)-4-methoxy-1-methylpyrrolidin-3-yl)oxy)-3,4-dihydro-2H-pyrano[2,3-f]quinazolin-10-yl)piperazin-2-yl)acetonitrile], the 50% inhibitory concentration (IC50) was 0.0065 µM.

Take `C=C(F)C(=O)N1CCN(c2ncnc3cc(-c4c(C)cccc4F)c4c(c23)OCCC4)C[C@@H]1CC#N` [Compound A30, 2-((2S)-4-(5-(2-fluoro-6-methylphenyl)-3,4-dihydro-2H-pyrano[2,3-f]quinazolin-10-yl)-1-(2-fluoroacryloyl)piperazin-2-yl)acetonitrile]: the half-maximal inhibitory concentration (IC50) came to 1.96 µM.

Turning to `C=CC(=O)N1CCN(c2nc(N3CC(N(C)C)C3)nc3cc(-c4ccccc4C(F)(F)F)c4c(c23)OCCC4)CC1` [Compound B22, 1-(4-(8-(3-(dimethylamino)azetidin-1-yl)-5-(2-(trifluoromethyl)phenyl)-3,4-dihydro-2H-pyrano[2,3-f]quinazolin-10-yl)piperazin-1-yl)prop-2-en-1-one], the IC50 worked out at 0.568 µM.

On to `C=C(F)C(=O)N1CCN(c2nc(N3CC(N(C)C)C3)nc3cc(-c4cccc5cccc(Cl)c45)c4c(c23)OCCC4)C[C@@H]1CC#N` [Compound B100, (S)-2-(4-(5-(8-chloronaphthalen-1-yl)-8-(3-(dimethylamino)azetidin-1-yl)-3,4-dihydro-2H-pyrano[2,3-f]quinazolin-10-yl)-1-(2-fluoroacryloyl)piperazin-2-yl)acetonitrile], for which the half-inhibitory concentration (IC50) amounted to 0.018 µM.

For `C=C(F)C(=O)N1CCN(c2nc(OC[C@@H]3CCCN3C)nc3cc(-c4c(F)cccc4F)c4ccoc4c23)C[C@@H]1CC#N` [Compound B38, 2-((S)-4-(4-(2,6-difluorophenyl)-7-(((S)-1-methylpyrrolidin-2-yl)methoxy)furo[2,3-f]quinazolin-9-yl)-1-(2-fluoroacryloyl)piperazin-2-yl)acetonitrile], the 50% inhibitory concentration (IC50) turned out to be 0.913 µM.

Take `C=C(F)C(=O)N1CCN(c2nc(OC[C@@H]3CCCN3C)nc3cc(-c4cccc5cccc(Cl)c45)c4c(c23)OCCC4)C[C@@H]1CC#N` [Compound B66, 2-((S)-4-(5-(8-chloronaphthalen-1-yl)-8-(((S)-1-methylpyrrolidin-2-yl)methoxy)-3,4-dihydro-2H-pyrano[2,3-f]quinazolin-10-yl)-1-(2-fluoroacryloyl)piperazin-2-yl)acetonitrile]: the IC50 is 0.0093 µM.

`C=C(F)C(=O)N1CCN(c2nc(OC[C@@H]3CCCN3C)nc3cc(-c4ccccc4F)c4ccoc4c23)CC1` [Compound B44, (S)-2-fluoro-1-(4-(4-(2-fluorophenyl)-7-((1-methylpyrrolidin-2-yl)methoxy)furo[2,3-f]quinazolin-9-yl)piperazin-1-yl)prop-2-en-1-one]: the IC50 is 6.35 µM.

For `C=CC(=O)N1CC2(CCN(c3ncnc4cc(-c5c(O)cccc5F)c5c(c34)OCCC5)CC2)C1` [Compound A5, 1-(7-(5-(2-fluoro-6-hydroxyphenyl)-3,4-dihydro-2H-pyrano[2,3-f]quinazolin-10-yl)-2,7-diazaspiro[3.5]nonan-2-yl)prop-2-en-1-one], the IC50 is 1.69 µM.

As for `C=CC(=O)N1CCN(c2ncnc3cc(-c4c(C)c(Cl)cc5[nH]ncc45)c4c(c23)OCCC4)C[C@@H]1CC#N` [Compound A26, 2-((2S)-1-acryloyl-4-(5-(6-chloro-5-methyl-1H-indazol-4-yl)-3,4-dihydro-2H-pyrano[2,3-f]quinazolin-10-yl)piperazin-2-yl)acetonitrile], the concentration for half-maximal inhibition (IC50) came out at 0.0099 µM.

As to `C=CC(=O)N1CCN(c2ncnc3cc(-c4c(C)ccc5[nH]ncc45)c4c(c23)OCCC4)C[C@@H]1CC#N` [Compound A10, 2-((2S)-1-acryloyl-4-(5-(5-methyl-1H-indazol-4-yl)-3,4-dihydro-2H-pyrano[2,3-f]quinazolin-10-yl)piperazin-2-yl)acetonitrile], the IC50 came to 0.598 µM.

As for `C=C(F)C(=O)N1CCN(c2nc(OC[C@@H]3CCCN3C)nc3cc(-c4cccc5cccc(C)c45)c4c(c23)OCCC4)C[C@@H]1CC#N` [Compound B43, 2-((S)-1-(2-fluoroacryloyl)-4-(5-(8-methylnaphthalen-1-yl)-8-(((S)-1-methylpyrrolidin-2-yl)methoxy)-3,4-dihydro-2H-pyrano[2,3-f]quinazolin-10-yl)piperazin-2-yl)acetonitrile], the 50% inhibitory concentration (IC50) is 0.013 µM.

`C=CC(=O)N1CCN(c2nc(N(C)CCN(C)C)nc3cc(-c4cccc5cccc(Cl)c45)c4c(c23)OCCC4)CC1` [Compound B23, 1-(4-(5-(8-chloronaphthalen-1-yl)-8-((2-(dimethylamino)ethyl)(methyl)amino)-3,4-dihydro-2H-pyrano[2,3-f]quinazolin-10-yl)piperazin-1-yl)prop-2-en-1-one]: the IC50 amounted to 0.202 µM.

As to `C=C(F)C(=O)N1CCN(c2nc(N3CC(CF)(N(C)C)C3)nc3cc(-c4cccc5cccc(Cl)c45)c4c(c23)OCCC4)C[C@@H]1CC#N` [Compound B88, (S)-2-(4-(5-(8-chloronaphthalen-1-yl)-8-(3-(dimethylamino)-3-(fluoromethyl)azetidin-1-yl)-3,4-dihydro-2H-pyrano[2,3-f]quinazolin-10-yl)-1-(2-fluoroacryloyl)piperazin-2-yl)acetonitrile], the half-maximal inhibitory concentration (IC50) was 0.092 µM.

Consider `C=C(F)C(=O)N1CCN(c2nc(OC[C@H]3C[C@@H](OC)CN3C)nc3cc(-c4cccc5cccc(Cl)c45)c4c(c23)OCCC4)C[C@@H]1CC#N` (single isomer, unassigned) [Compound B107], for which the IC50 is 0.00326 µM.

On to `C=C(F)C(=O)N1CCN(c2nc(OC(C)CN(C)C)nc3cc(-c4cccc5cccc(Cl)c45)c4c(c23)OCCC4)C[C@@H]1CC#N` (stereo partly drawn) [Compound B85, 2-((2S)-4-(5-(8-chloronaphthalen-1-yl)-8-((1-(dimethylamino)propan-2-yl)oxy)-3,4-dihydro-2H-pyrano[2,3-f]quinazolin-10-yl)-1-(2-fluoroacryloyl)piperazin-2-yl)acetonitrile], for which the IC50 stood at 0.089 µM.

Consider `C=CC(=O)N1CCN(c2ncnc3cc(-c4cccc5ccccc45)c4c(c23)OCCC4)C[C@@H]1CC#N` [Compound A7, (S)-2-(1-acryloyl-4-(5-(naphthalen-1-yl)-3,4-dihydro-2H-pyrano[2,3-f]quinazolin-10-yl)piperazin-2-yl)acetonitrile], for which the half-maximal inhibitory concentration (IC50) is 0.0431 µM.

Regarding `C=C(F)C(=O)N1CCN(c2nc(OCC3C[C@@H](OC)CN3C)nc3cc(-c4cccc5cccc(Cl)c45)c4c(c23)OCCC4)C[C@@H]1CC#N` (single isomer, unassigned) [Compound B94], the concentration for half-maximal inhibition (IC50) was 0.00463 µM.

In the case of `C=CC(=O)N1CCN(c2ncnc3cc(-c4ccc(O)c5ccccc45)c4c(c23)OCCC4)C[C@@H]1CC#N` [Compound A21, (S)-2-(1-acryloyl-4-(5-(4-hydroxynaphthalen-1-yl)-3,4-dihydro-2H-pyrano[2,3-f]quinazolin-10-yl)piperazin-2-yl)acetonitrile], the IC50 stood at 0.005 µM.

The values are drawn from patent US20240166660A1, “KRAS G12C INHIBITORS” (BeiGene Switzerland GmbH, priority 2021, published 2024).
